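How tested: cells in 96-well plates exposed to compound for 48 hours at five concentrations. Here, GI50 denotes the concentration required for 50% inhibition of growth.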 The source made the active and inactive calls. No stated cut-off is given here; in the data, active = GI50 up to about 1.1 µM and inactive = higher.
Columns and labels:
Test in all cases: NCI-60 cell line screen, 48 h
SK-MEL-28 = test system: SK-MEL-28
OVCAR-8 = test system: OVCAR-8
A498 = test system: A498
HT-29 = test system: HT-29
SR = test system: SR
Malme-3M = test system: Malme-3M
NCI-H460 = test system: NCI-H460
MOLT-4 = test system: MOLT-4
T47D = test system: T47D
NCI-H23 = test system: NCI-H23
HCC 2998 = test system: HCC 2998
HCT-116 = test system: HCT-116
M14 = test system: M14
DU-145 = test system: DU-145
SN12C = test system: SN12C
SNB-19 = test system: SNB-19
BT-549 = test system: BT-549
RXF 393 = test system: RXF 393
SF-539 = test system: SF-539
NCI-H522 = test system: NCI-H522
MCF7 = test system: MCF7
UACC-62 = test system: UACC-62
MDA-N = test system: MDA-N
TK-10 = test system: TK-10
A549 = test system: A549
HOP-92 = test system: HOP-92
UACC-257 = test system: UACC-257
SNB-75 = test system: SNB-75
MDA-MB-435 = test system: MDA-MB-435
MDA-MB-231 = test system: MDA-MB-231
CAKI-1 = test system: CAKI-1
Hs-578T = test system: Hs-578T
SK-MEL-5 = test system: SK-MEL-5
OVCAR-4 = test system: OVCAR-4
SF-295 = test system: SF-295
HOP-62 = test system: HOP-62
EKVX = test system: EKVX
SW-620 = test system: SW-620
786-0 = test system: 786-0
SK-MEL-2 = test system: SK-MEL-2
LOX IMVI = test system: LOX IMVI
K562 = test system: K562
HL-60 = test system: HL-60
U-251 = test system: U-251
SK-OV-3 = test system: SK-OV-3
IGROV-1 = test system: IGROV-1
UO-31 = test system: UO-31
HCT-15 = test system: HCT-15
NCI-H226 = test system: NCI-H226
RPMI-8226 = test system: RPMI-8226
OVCAR-3 = test system: OVCAR-3
COLO 205 = test system: COLO 205
ACHN = test system: ACHN
CCRF-CEM = test system: CCRF-CEM
SF-268 = test system: SF-268
PC-3 = test system: PC-3
NCI/ADR-RES = test system: NCI/ADR-RES
OVCAR-5 = test system: OVCAR-5
KM12 = test system: KM12
M19-MEL = test system: M19-MEL
DMS-273 = test system: DMS-273
LXFL 529 = test system: LXFL 529
DLD-1 = test system: DLD-1
SNB-78 = test system: SNB-78
KM-20L2 = test system: KM-20L2

In the case of `Cc1cc(Cl)ccc1Nc1sc(C(=O)c2cc3cc(Cl)ccc3o2)c(N)c1C#N`, the GI50 (SK-MEL-28) is reported as > 28.1 µM (inactive), the GI50 (OVCAR-8) is reported as 11.4 µM (inactive) and the GI50 (A498) is reported as 5.6 µM (inactive). The GI50 (HT-29) was 8.67 µM (inactive), the GI50 (SR) was > 100 µM (inactive) and the GI50 (Malme-3M) was 80.5 µM (inactive). For the same compound, the GI50 (NCI-H460) was 5.96 µM (inactive), the GI50 (MOLT-4) was > 53.3 µM (inactive) and the GI50 (T47D) was 16.6 µM (inactive). The GI50 (NCI-H23) was 7.41 µM (inactive), the GI50 (HCC 2998) was 3.1 µM (inactive) and the GI50 (HCT-116) was 18.4 µM (inactive). For the same compound, the GI50 (M14) was 9.57 µM (inactive), the GI50 (DU-145) was 18.8 µM (inactive) and the GI50 (SN12C) was 11.9 µM (inactive). For the same compound, the GI50 (SNB-19) was 6.89 µM (inactive), the GI50 (BT-549) was > 51.9 µM (inactive) and the GI50 (RXF 393) was 27.7 µM (inactive). The GI50 (SF-539) was 6.53 µM (inactive), the GI50 (NCI-H522) was 3.42 µM (inactive) and the GI50 (MCF7) was 8.38 µM (inactive). The GI50 (UACC-62) was 6 µM (inactive), the GI50 (MDA-N) was 79.3 µM (inactive) and the GI50 (TK-10) was > 35.8 µM (inactive). For the same compound, the GI50 (A549) was 5.98 µM (inactive), the GI50 (HOP-92) was 47 µM (inactive) and the GI50 (UACC-257) was > 61.7 µM (inactive). For the same compound, the GI50 (SNB-75) was 3.48 µM (inactive), the GI50 (MDA-MB-435) was 8.71 µM (inactive) and the GI50 (MDA-MB-231) was 4.99 µM (inactive). The GI50 (CAKI-1) was 25.1 µM (inactive), the GI50 (Hs-578T) was > 100 µM (inactive) and the GI50 (SK-MEL-5) was 3.99 µM (inactive). The GI50 (OVCAR-4) was 3.59 µM (inactive), the GI50 (SF-295) was 4.76 µM (inactive) and the GI50 (HOP-62) was 4.86 µM (inactive). The GI50 (EKVX) was 17.9 µM (inactive), the GI50 (SW-620) was 15.2 µM (inactive) and the GI50 (786-0) was 3.83 µM (inactive). The GI50 (SK-MEL-2) was > 44.9 µM (inactive), the GI50 (LOX IMVI) was > 100 µM (inactive) and the GI50 (K562) was 18.7 µM (inactive). The GI50 (HL-60) was > 80.5 µM (inactive), the GI50 (U-251) was 4.14 µM (inactive) and the GI50 (SK-OV-3) was 14.7 µM (inactive). The GI50 (IGROV-1) was 16.3 µM (inactive), the GI50 (UO-31) was 34.1 µM (inactive) and the GI50 (HCT-15) was 33 µM. The GI50 (NCI-H226) was > 87.7 µM (inactive), the GI50 (RPMI-8226) was 2.27 µM (inactive) and the GI50 (OVCAR-3) was 12.5 µM (inactive). The GI50 (COLO 205) was > 69.8 µM (inactive), the GI50 (ACHN) was 15.4 µM (inactive) and the GI50 (CCRF-CEM) was > 27.1 µM (inactive). The GI50 (SF-268) was 5.3 µM (inactive), the GI50 (PC-3) was 6.08 µM (inactive) and the GI50 (NCI/ADR-RES) was 1.82 µM (inactive). The GI50 (OVCAR-5) was > 43.7 µM (inactive) and the GI50 (KM12) was 6.15 µM (inactive).
`COc1ccc(CNC2=C(NC(C)=O)C(=O)c3ccccc3C2=O)cc1` was tested, and the GI50 (M19-MEL) was 9.48 µM (inactive), the GI50 (SK-MEL-28) was 18.3 µM (inactive) and the GI50 (OVCAR-8) was 16.8 µM (inactive). For the same compound, the GI50 (HT-29) was 29.4 µM (inactive), the GI50 (SR) was 14 µM (inactive) and the GI50 (Malme-3M) was 8.32 µM (inactive). The GI50 (NCI-H460) was 15.2 µM (inactive), the GI50 (MOLT-4) was 3.71 µM (inactive) and the GI50 (NCI-H23) was 6.68 µM (inactive). For the same compound, the GI50 (HCC 2998) was 48.4 µM (inactive), the GI50 (HCT-116) was 5.09 µM (inactive) and the GI50 (M14) was 19.4 µM (inactive). The GI50 (SN12C) was 16.8 µM (inactive), the GI50 (SNB-19) was 25.5 µM (inactive) and the GI50 (RXF 393) was 6.41 µM (inactive). The GI50 (SF-539) was 7.43 µM (inactive), the GI50 (NCI-H522) was 1.37 µM (inactive) and the GI50 (UACC-62) was 7.73 µM (inactive). For the same compound, the GI50 (DMS-273) was 16.4 µM (inactive), the GI50 (TK-10) was 10.6 µM (inactive) and the GI50 (A549) was 17.3 µM (inactive). The GI50 (HOP-92) was 6.56 µM (inactive), the GI50 (UACC-257) was 8.77 µM (inactive) and the GI50 (SNB-75) was 12.8 µM (inactive). The GI50 (LXFL 529) was 8.07 µM (inactive), the GI50 (SK-MEL-5) was 7.48 µM (inactive) and the GI50 (OVCAR-4) was 8.13 µM (inactive). For the same compound, the GI50 (SF-295) was 17.8 µM (inactive), the GI50 (DLD-1) was 8.53 µM (inactive) and the GI50 (HOP-62) was > 50 µM (inactive). For the same compound, the GI50 (EKVX) was 14.7 µM (inactive), the GI50 (SW-620) was 8.13 µM (inactive) and the GI50 (786-0) was 24.4 µM (inactive). The GI50 (SK-MEL-2) was 9.18 µM (inactive), the GI50 (LOX IMVI) was 8.51 µM (inactive) and the GI50 (K562) was 7.76 µM (inactive). For the same compound, the GI50 (HL-60) was 1.69 µM (inactive), the GI50 (U-251) was 12.4 µM (inactive) and the GI50 (SNB-78) was 11.9 µM (inactive). For the same compound, the GI50 (SK-OV-3) was 19.5 µM (inactive), the GI50 (IGROV-1) was 16.8 µM (inactive) and the GI50 (UO-31) was 9.53 µM (inactive). For the same compound, the GI50 (HCT-15) was 13.1 µM, the GI50 (NCI-H226) was 12.6 µM (inactive) and the GI50 (KM-20L2) was 28.8 µM (inactive). The GI50 (OVCAR-3) was 8.07 µM (inactive), the GI50 (COLO 205) was 9.44 µM (inactive) and the GI50 (ACHN) was 2.07 µM (inactive). For the same compound, the GI50 (CCRF-CEM) was 8.73 µM (inactive), the GI50 (SF-268) was 18.9 µM (inactive) and the GI50 (KM12) was 23 µM (inactive).
